Source: paper PMC9810272 (Nature, 2022)
Where two headings read alike, the source gives them in different places.

Key:
yeast Tango2p [1] = biological target: T1, yeast Tango2p (Saccharomyces cerevisiae, UniProt P53275); test: UV-vis difference spectra titration; assay type: binding
T1 sequence (P53275 1-312): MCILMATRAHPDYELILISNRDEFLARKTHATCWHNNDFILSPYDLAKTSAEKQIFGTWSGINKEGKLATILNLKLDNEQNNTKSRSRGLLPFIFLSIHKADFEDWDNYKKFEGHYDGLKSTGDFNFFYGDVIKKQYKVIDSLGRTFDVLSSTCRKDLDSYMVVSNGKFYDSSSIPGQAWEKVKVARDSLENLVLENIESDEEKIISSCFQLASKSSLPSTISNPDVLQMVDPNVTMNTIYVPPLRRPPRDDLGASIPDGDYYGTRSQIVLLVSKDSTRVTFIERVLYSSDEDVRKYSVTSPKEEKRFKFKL

yeast Tango2p [2] = biological target: T1, yeast Tango2p; test: UV-vis difference spectra titration; assay type: binding; remark: listed apart in the source

Row | Kd (yeast Tango2p [1]) [µM] | Kd (yeast Tango2p [2]) [µM] | Compound
1 | 38.7 | – | C=CC1=C(C)C2=Cc3c(C=C)c(C)c4[n]3[Fe][n]3c(c(C)c(CCC(=O)O)c3=CC3=NC(=C4)C(C)=C3CCC(=O)O)=CC1=N2 [ferric haem]
2 | – | 15.4 | C=CC1=C(C)C2=Cc3c(C=C)c(C)c4[n]3[Fe][n]3c(c(C)c(CCC(=O)O)c3=CC3=NC(=C4)C(C)=C3CCC(=O)O)=CC1=N2 [ferrous haem]
